Series [1] can be described thus: Cytotoxicity against human Huh-7 cells assessed as cell viability. In kind it is toxicity, cell-based.
Series [2] has as its system Hepatitis C virus. Description: Antiviral activity against Hepatitis C virus genotype 1b infected in human Huh-7 cells assessed as inhibition of viral growth incubated for 3 days. In kind it is functional, organism-based, Hepacivirus hominis. The note with it: Huh-7, 72 h.
The subject of series [3] is Hepatitis C virus. Description: Antiviral activity against Hepatitis C virus. In kind it is functional, organism-based, Hepacivirus hominis.
Series [4] has as its target Hepatitis C virus NS5B RNA-dependent RNA polymerase (Hepatitis C virus, UniProt Q8JXU8). Briefly: Inhibition of Hepatitis C virus NS5B polymerase. Details: species or system Hepacivirus hominis.

Hepatitis C virus NS5B RNA-dependent RNA polymerase, sequence (Q8JXU8 whole entry): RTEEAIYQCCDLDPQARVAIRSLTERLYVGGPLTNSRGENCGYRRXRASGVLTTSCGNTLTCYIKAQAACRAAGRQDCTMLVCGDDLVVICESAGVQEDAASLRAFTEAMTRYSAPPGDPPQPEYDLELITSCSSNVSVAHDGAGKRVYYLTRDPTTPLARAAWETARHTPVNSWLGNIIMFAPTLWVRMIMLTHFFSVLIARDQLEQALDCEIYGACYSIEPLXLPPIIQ

One may read the CC50 as the concentration that lowers cell viability or growth by half. The term EC50 denotes the midpoint of the concentration-response curve. As for `N/C(=N\O)C(Cc1ccccc1)N(Cc1cccc(F)c1)C(=O)c1ccc(Cl)cc1Cl` (stereo not given), the CC50 in series [1] is above 50 µM. In addition, the EC50 in the series on Hepatitis C virus [2] is above 50 µM.
In general, IC50 refers to the concentration that gives 50% inhibition. On to `CC1CCC(C(=O)N(C)c2ccc(Oc3ccccc3C(F)(F)F)cc2C(=O)O)CC1` (stereo not given), for which the EC50 in the series on Hepatitis C virus [3] is 1.1 µM. In series [4], the IC50 was 0.2 µM.
For `O=C(O)[C@H](Cc1ccccc1)N(Cc1cccc(C(F)(F)F)c1)C(=O)c1ccc(Cl)cc1Cl`, in series [4], the IC50 stood at 1.7 µM.
On to `CC(C)(C)C(=O)OCn1c(C(Cc2ccccc2)N(Cc2cccc(C(F)(F)F)c2)C(=O)c2ccc(Cl)cc2Cl)noc1=S` (stereo not given), for which the CC50 in series [1] is above 50 µM. The EC50 in the series on Hepatitis C virus [2] was above 50 µM.
As for `N#CC(Cc1ccccc1)N(Cc1cccc(Br)c1)C(=O)c1ccc(Cl)cc1Cl` (stereo not given), the CC50 in series [1] was above 50 µM. Besides, in the series with Hepatitis C virus [2], the EC50 is above 50 µM.
Take `N#CC(Cc1ccccc1)N(Cc1cccc([N+](=O)[O-])c1)C(=O)c1ccc(Cl)cc1Cl` (stereo not given): in series [1], the CC50 is above 50 µM. For the same molecule, in the series with Hepatitis C virus [2], the EC50 amounted to 5.19 µM.
Consider `O=C(c1ccc(Cl)cc1Cl)N(Cc1cccc(C(F)(F)F)c1)C(Cc1ccccc1)c1noc(=S)[nH]1` (stereo not given), for which the CC50 in series [1] was above 50 µM. In addition, the 50% effective concentration (EC50) with Hepatitis C virus [2] is above 50 µM.
Turning to `O=C(c1ccc(Cl)cc1Cl)N(Cc1cccc(Br)c1)C(Cc1ccccc1)c1noc(=O)[nH]1` (stereo not given), the CC50 in series [1] was above 50 µM. Moreover, the EC50 in the series on Hepatitis C virus [2] was above 50 µM.
Turning to `O=C(c1ccc(Cl)cc1Cl)N(Cc1cccc([N+](=O)[O-])c1)C(Cc1ccccc1)c1noc(=O)[nH]1` (stereo not given), the cytotoxic concentration (CC50) in series [1] was above 50 µM. The EC50 in the series on Hepatitis C virus [2] was above 50 µM.
With `CC1=CC[C@H](C(=O)N(c2cc(C#CC(C)(C)C)sc2C(=O)O)[C@H]2CC[C@](O)(CO[C@H]3CCOC3)CC2)CC1` [RADALBUVIR], in series [1], the cytotoxic concentration (CC50) was above 50 µM. For the same molecule, the EC50 in the series on Hepatitis C virus [2] is 0.052 µM.
Consider `N/C(=N\O)C(Cc1ccccc1)N(Cc1cccc([N+](=O)[O-])c1)C(=O)c1ccc(Cl)cc1Cl` (stereo not given), for which, in series [1], the CC50 is 18.2 µM. Besides, in the series on Hepatitis C virus [2], the EC50 turned out to be 11.3 µM.
Take `N#CC(Cc1ccccc1)N(Cc1cccc(F)c1)C(=O)c1ccc(Cl)cc1Cl` (stereo not given): in series [1], the CC50 is above 50 µM. In addition, in the series on Hepatitis C virus [2], the half-maximal effective concentration (EC50) amounted to 3.72 µM.
For `O=C(c1ccc(Cl)cc1Cl)N(Cc1cccc(C(F)(F)F)c1)C(Cc1ccccc1)c1noc(=O)[nH]1` (stereo not given) the same measures were 49.2 µM and above 50 µM.
For `CC(C)(C)C(=O)OCn1c(C(Cc2ccccc2)N(Cc2cccc([N+](=O)[O-])c2)C(=O)c2ccc(Cl)cc2Cl)noc1=S` (stereo not given) the same measures were above 50 µM and above 50 µM.
The matching figures for `O=C(c1ccc(Cl)cc1Cl)N(Cc1cccc(Br)c1)C(Cc1ccccc1)c1noc(=S)[nH]1` (stereo not given): above 50 µM and above 50 µM.
Consider `O=C(c1ccc(Cl)cc1Cl)N(Cc1cccc(F)c1)C(Cc1ccccc1)c1noc(=S)[nH]1` (stereo not given), for which the CC50 in series [1] was above 50 µM. For the same molecule, the EC50 with Hepatitis C virus [2] is above 50 µM.
In series [4], `N#Cc1cccc(CN(C(=O)c2ccc(Cl)cc2Cl)[C@@H](Cc2ccccc2)C(=O)O)c1` had an IC50 of 0.8 µM.
As for `N/C(=N\O)C(Cc1ccccc1)N(Cc1cccc(Br)c1)C(=O)c1ccc(Cl)cc1Cl` (stereo not given), the CC50 in series [1] is 16.1 µM. In the series with Hepatitis C virus [2], the EC50 worked out at 6.36 µM.
The matching figures for `N/C(=N\O)C(Cc1ccccc1)N(Cc1cccc(C(F)(F)F)c1)C(=O)c1ccc(Cl)cc1Cl` (stereo not given): 11 µM and 3.91 µM.
For the molecule `Cn1c(C(Cc2ccccc2)N(Cc2cccc(C(F)(F)F)c2)C(=O)c2ccc(Cl)cc2Cl)noc1=S` (stereo not given), in series [1], the CC50 was above 50 µM. Moreover, in the series on Hepatitis C virus [2], the EC50 amounted to 8.09 µM.
`O=C(O)[C@H](Cc1ccccc1)N(Cc1cccc([N+](=O)[O-])c1)C(=O)c1ccc(Cl)cc1Cl`: the IC50 in series [4] was 0.7 µM.
As for `O=C(c1ccc(Cl)cc1Cl)N(Cc1cccc(F)c1)C(Cc1ccccc1)c1noc(=O)[nH]1` (stereo not given), the cytotoxic concentration (CC50) in series [1] was above 50 µM. Moreover, the EC50 in the series on Hepatitis C virus [2] is above 50 µM.
Take `O=C(c1ccc(Cl)cc1Cl)N(Cc1cccc([N+](=O)[O-])c1)C(Cc1ccccc1)c1noc(=S)[nH]1` (stereo not given): the CC50 in series [1] was above 50 µM. Also, the EC50 in the series with Hepatitis C virus [2] is above 50 µM.
In the case of `N#CC(Cc1ccccc1)N(Cc1cccc(C(F)(F)F)c1)C(=O)c1ccc(Cl)cc1Cl` (stereo not given), in series [1], the half-maximal cytotoxic concentration (CC50) is above 50 µM. For the same molecule, the 50% effective concentration (EC50) in the series on Hepatitis C virus [2] is above 50 µM.

(Values after ChEMBL document CHEMBL6127060, “Bioisosteric replacement of the carboxylic acid group in Hepatitis-C virus NS5B thumb site II inhibitors: phenylalanine derivatives” (Eur J Med Chem, 2024).)
